# Results as given in ChEMBL document CHEMBL1157891, “Methylene amine substituted arylindenopyrimidines as potent adenosine A(2A)/A(1) antagonists” (Bioorg Med Chem Lett, 2010).
# The source made the active and inactive calls. The calls are words filed in the database; no cut-off is given here.
# Legend:
# [1] = molecular target: T1, Adenosine receptor A1 (Homo sapiens, UniProt P30542); test: Antagonist activity at adenosine A1 receptor; type: functional
# T1 sequence (P30542 whole entry): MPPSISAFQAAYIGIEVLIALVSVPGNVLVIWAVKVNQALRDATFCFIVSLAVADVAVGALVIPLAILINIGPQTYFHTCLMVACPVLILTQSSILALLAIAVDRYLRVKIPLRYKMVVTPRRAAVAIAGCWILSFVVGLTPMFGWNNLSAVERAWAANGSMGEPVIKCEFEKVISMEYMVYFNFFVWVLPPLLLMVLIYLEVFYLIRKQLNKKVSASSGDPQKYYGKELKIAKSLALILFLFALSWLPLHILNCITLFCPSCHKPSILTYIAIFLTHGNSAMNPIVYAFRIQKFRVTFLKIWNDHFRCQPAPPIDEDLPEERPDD
# [2] = Mutagenic activity in Salmonella Typhimurium by Ames assay; type: toxicity; conditions: salmonella enterica subsp. enterica serovar typhimurium
# [3] = tested on: Mus musculus; test: Inhibition of haloperidol-induced catalepsy in po dosed mouse; type: functional
# [4] = molecular target: Adenosine receptor A2a (Homo sapiens, UniProt P29274); test: Antagonist activity at adenosine A2A receptor; type: functional
# [5] = tested on: Mus musculus; test: Inhibition of haloperidol-induced catalepsy in mouse at 10 mg/kg, po; type: functional, organism-based; parameters: dose 10 mg/kg
# Adenosine receptor A2a, sequence (P29274 whole entry): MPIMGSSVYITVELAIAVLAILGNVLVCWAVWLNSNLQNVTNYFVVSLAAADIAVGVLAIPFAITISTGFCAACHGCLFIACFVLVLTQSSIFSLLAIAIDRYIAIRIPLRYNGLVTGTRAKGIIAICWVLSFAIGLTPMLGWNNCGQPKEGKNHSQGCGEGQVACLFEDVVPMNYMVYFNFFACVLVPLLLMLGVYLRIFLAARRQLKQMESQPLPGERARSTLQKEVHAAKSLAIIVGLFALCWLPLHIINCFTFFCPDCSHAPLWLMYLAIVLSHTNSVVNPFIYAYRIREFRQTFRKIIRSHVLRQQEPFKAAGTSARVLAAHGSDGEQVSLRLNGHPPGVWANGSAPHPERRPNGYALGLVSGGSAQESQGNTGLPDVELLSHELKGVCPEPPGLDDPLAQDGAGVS
Ki [1],Ki [4],SMILES,Activity [2],ED50 [3],inhibition [5]
40 nM,10.5 nM,CN(C)CCN(C)c1ccc(-c2nc(N)nc3c2C(=O)c2ccccc2-3)o1,Non-toxic,17.1 mg/kg,–
20 nM,7.8 nM,CN(C)CCN(C)Cc1ccc2c(c1)-c1nc(N)nc(-c3ccccc3)c1C2=O,–,–,–
1.1 nM,–,Nc1nc(-c2ccccc2)c2c(n1)-c1ccccc1C2=O,Non-toxic,8 mg/kg,–
0.4 nM,–,Nc1nc(-c2ccco2)c2c(n1)-c1ccccc1C2=O,Toxic,5 mg/kg,–
–,0.5 nM,Nc1nc(-c2nccs2)c2c(n1)-c1ccccc1C2=O,–,–,inactive
2.5 nM,1.6 nM,COc1cccc(-c2nc(N)nc3c2C(=O)c2ccccc2-3)c1,Non-toxic,–,inactive
107 nM,18.3 nM,CCN(CC)Cc1cccc2c1-c1nc(N)nc(-c3ccccc3)c1C2=O,–,–,inactive
0.5 nM,0.2 nM,Nc1nc(-c2ccc(Cl)o2)c2c(n1)-c1ccccc1C2=O,–,–,inactive

# Continued, molecule first:
SMILES,Ki [1],Ki [4],Activity [2],ED50 [3],inhibition [5]
Nc1nc(-c2ccc(F)cc2)c2c(n1)-c1cc(CN3CCCCC3)ccc1C2=O,95.7 nM,9.9 nM,–,0.6 mg/kg,–
N#Cc1cccc(-c2nc(N)nc3c2C(=O)c2cccc(CN4CCOCC4)c2-3)c1,75 nM,5.4 nM,–,1.7 mg/kg,–
Nc1nc(-c2ccccc2)c2c(n1)-c1c(CN3CCCCCC3)cccc1C2=O,95.2 nM,8.6 nM,–,–,inactive
Nc1nc(-c2ccc(F)cc2)c2c(n1)-c1c(CN3CCOCC3)cccc1C2=O,155 nM,3.8 nM,–,1.3 mg/kg,–
Nc1nc(-c2ccccc2)c2c(n1)-c1c(CN3CCOCC3)cccc1C2=O,32.9 nM,3.3 nM,–,5.6 mg/kg,–
CC(=O)N1CCN(Cc2cccc3c2-c2nc(N)nc(-c4ccccc4)c2C3=O)CC1,34.1 nM,7.9 nM,–,10.7 mg/kg,–
CC1CCC(C)N1Cc1cccc2c1-c1nc(N)nc(-c3ccccc3)c1C2=O (stereo unspecified),140 nM,11.3 nM,–,–,inactive
CN1CCN(Cc2ccc3c(c2)-c2nc(N)nc(-c4ccc(F)cc4)c2C3=O)CC1,225 nM,29.8 nM,–,3.5 mg/kg,–
CN(C)CCN(C)Cc1cccc2c1-c1nc(N)nc(-c3ccccc3)c1C2=O,119 nM,40.1 nM,–,–,inactive
Nc1nc(-c2ccc(Cl)cc2)c2c(n1)-c1ccccc1C2=O,–,–,Non-toxic,–,inactive
Nc1nc(-c2ccccc2)c2c(n1)-c1c(CN3CCCCC3)cccc1C2=O,40.8 nM,14.3 nM,–,5 mg/kg,–
Nc1nc(-c2ccncc2)c2c(n1)-c1ccccc1C2=O,–,–,–,–,inactive
Nc1nc(-c2ccc(F)cc2)c2c(n1)-c1c(CN3CCCC3)cccc1C2=O,85 nM,3.6 nM,–,0.8 mg/kg,–
Nc1nc(-c2ccc(F)cc2)c2c(n1)-c1cc(CN3CCCC3)ccc1C2=O,66.2 nM,12.8 nM,–,1.6 mg/kg,–
COc1ccccc1-c1nc(N)nc2c1C(=O)c1ccccc1-2,–,–,Non-toxic,–,inactive
CN1CCN(Cc2cccc3c2-c2nc(N)nc(-c4ccccc4)c2C3=O)CC1,94.2 nM,11.3 nM,–,7.8 mg/kg,–
Nc1nc(-c2ccccc2)c2c(n1)-c1c(CN3CCCC3)cccc1C2=O,116 nM,2.5 nM,–,3.8 mg/kg,–
